Measured values as given in PubChem BioAssay AID2060615 (Molecular Pharmacology Branch, DTP, NCI, 2025).

System: 496974-208-R-J2-PDC complex spheroids, growth % test/control
Experiment: Anticancer human tumor 496974-208-R-J2-PDC patient-derived pancreatic carcinoma cell line growth inhibition [CLK]
Conditions: for IC50: curve of first compound; for viability, T/C: stronger effect = lower value
In short: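 Patient-derived tumor cells grown as complex spheroids with HUVEC endothelial cells and mesenchymal stem cells, treated with drug combinations. Concentrations descend in half-log steps from near clinical Cmax, or from 10 microM if Cmax unknown.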
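Also: spheroids exposed to the drugs for 7 days before readout.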
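For viability, T/C in this document: 100% = DMSO vehicle control wells.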

Compound: CC(C)CC(NC(=O)C(Cc1ccccc1)NC(=O)c1cnccn1)B(O)O (centres undefined) + CN1CCN(c2cc(C(=O)Nc3cc4cc(-c5cnn(C)c5)ccc4cn3)ccn2)CC1
- IC50 (second compound 0.0316 µM): 4.54 nM
- IC50 (second compound 0.1 µM): 3.84 nM
- IC50 (second compound 0.316 µM): < 0.949 nM
- IC50 (second compound 1 µM): < 0.949 nM
- IC50 (second compound 3.16 µM): < 0.949 nM
- IC50 (second compound 10 µM): < 0.949 nM
- viability, T/C (second compound 0.0316 µM, first compound 0.000949 µM): 104%
- viability, T/C (second compound 0.0316 µM, first compound 0.003 µM): 77.2%
- viability, T/C (second compound 0.0316 µM, first compound 0.00949 µM): 1.7%
- viability, T/C (second compound 0.0316 µM, first compound 0.03 µM): 0.32%
- viability, T/C (second compound 0.0316 µM, first compound 0.0949 µM): 0.24%
- viability, T/C (second compound 0.0316 µM, first compound 0.3 µM): 2.04%
- viability, T/C (second compound 0.1 µM, first compound 0.000949 µM): 85.5%
- viability, T/C (second compound 0.1 µM, first compound 0.003 µM): 63.1%
- viability, T/C (second compound 0.1 µM, first compound 0.00949 µM): 2%
- viability, T/C (second compound 0.1 µM, first compound 0.03 µM): 0.33%
- viability, T/C (second compound 0.1 µM, first compound 0.0949 µM): 0.27%
- viability, T/C (second compound 0.1 µM, first compound 0.3 µM): 3.67%
- viability, T/C (second compound 0.316 µM, first compound 0.000949 µM): 6.64%
- viability, T/C (second compound 0.316 µM, first compound 0.003 µM): 5.3%
- viability, T/C (second compound 0.316 µM, first compound 0.00949 µM): 0.71%
- viability, T/C (second compound 0.316 µM, first compound 0.03 µM): 0.38%
- viability, T/C (second compound 0.316 µM, first compound 0.0949 µM): 0.51%
- viability, T/C (second compound 0.316 µM, first compound 0.3 µM): 2.72%
- viability, T/C (second compound 1 µM, first compound 0.000949 µM): 0.49%
- viability, T/C (second compound 1 µM, first compound 0.003 µM): 1.07%
- viability, T/C (second compound 1 µM, first compound 0.00949 µM): 0.68%
- viability, T/C (second compound 1 µM, first compound 0.03 µM): 0.63%
- viability, T/C (second compound 1 µM, first compound 0.0949 µM): 2.26%
- viability, T/C (second compound 1 µM, first compound 0.3 µM): 1.33%
- viability, T/C (second compound 3.16 µM, first compound 0.000949 µM): 0.5%
- viability, T/C (second compound 3.16 µM, first compound 0.003 µM): 2.35%
- viability, T/C (second compound 3.16 µM, first compound 0.00949 µM): 0.66%
- viability, T/C (second compound 3.16 µM, first compound 0.03 µM): 0.53%
- viability, T/C (second compound 3.16 µM, first compound 0.0949 µM): 1.54%
- viability, T/C (second compound 3.16 µM, first compound 0.3 µM): 2.08%
- viability, T/C (second compound 10 µM, first compound 0.000949 µM): 0.27%
- viability, T/C (second compound 10 µM, first compound 0.003 µM): 0.26%
- viability, T/C (second compound 10 µM, first compound 0.00949 µM): 1.83%
- viability, T/C (second compound 10 µM, first compound 0.03 µM): 0.24%
- viability, T/C (second compound 10 µM, first compound 0.0949 µM): 0.3%
- viability, T/C (second compound 10 µM, first compound 0.3 µM): 2.65%

Compound: O=C(c1cc(Cc2n[nH]c(=O)c3ccccc23)ccc1F)N1CCN(C(=O)C2CC2)CC1 + CN1CCN(c2cc(C(=O)Nc3cc4cc(-c5cnn(C)c5)ccc4cn3)ccn2)CC1
- IC50 (second compound 0.0316 µM): > 10000 nM
- IC50 (second compound 0.1 µM): > 10000 nM
- IC50 (second compound 0.316 µM): < 31.6 nM
- IC50 (second compound 1 µM): < 31.6 nM
- IC50 (second compound 3.16 µM): < 31.6 nM
- IC50 (second compound 10 µM): < 31.6 nM
- viability, T/C (second compound 0.0316 µM, first compound 0.0316 µM): 98.7%
- viability, T/C (second compound 0.0316 µM, first compound 0.1 µM): 96%
- viability, T/C (second compound 0.0316 µM, first compound 0.316 µM): 87.4%
- viability, T/C (second compound 0.0316 µM, first compound 1 µM): 97.7%
- viability, T/C (second compound 0.0316 µM, first compound 3.16 µM): 88.3%
- viability, T/C (second compound 0.0316 µM, first compound 10 µM): 88.2%
- viability, T/C (second compound 0.1 µM, first compound 0.0316 µM): 82.7%
- viability, T/C (second compound 0.1 µM, first compound 0.1 µM): 76%
- viability, T/C (second compound 0.1 µM, first compound 0.316 µM): 80.2%
- viability, T/C (second compound 0.1 µM, first compound 1 µM): 79.4%
- viability, T/C (second compound 0.1 µM, first compound 3.16 µM): 83.2%
- viability, T/C (second compound 0.1 µM, first compound 10 µM): 64.7%
- viability, T/C (second compound 0.316 µM, first compound 0.0316 µM): 5.96%
- viability, T/C (second compound 0.316 µM, first compound 0.1 µM): 5.32%
- viability, T/C (second compound 0.316 µM, first compound 0.316 µM): 5.38%
- viability, T/C (second compound 0.316 µM, first compound 1 µM): 6.21%
- viability, T/C (second compound 0.316 µM, first compound 3.16 µM): 5.51%
- viability, T/C (second compound 0.316 µM, first compound 10 µM): 6.01%
- viability, T/C (second compound 1 µM, first compound 0.0316 µM): 0.53%
- viability, T/C (second compound 1 µM, first compound 0.1 µM): 0.75%
- viability, T/C (second compound 1 µM, first compound 0.316 µM): 1.95%
- viability, T/C (second compound 1 µM, first compound 1 µM): 0.47%
- viability, T/C (second compound 1 µM, first compound 3.16 µM): 1.71%
- viability, T/C (second compound 1 µM, first compound 10 µM): 1.78%
- viability, T/C (second compound 3.16 µM, first compound 0.0316 µM): 0.81%
- viability, T/C (second compound 3.16 µM, first compound 0.1 µM): 0.43%
- viability, T/C (second compound 3.16 µM, first compound 0.316 µM): 0.55%
- viability, T/C (second compound 3.16 µM, first compound 1 µM): 0.48%
- viability, T/C (second compound 3.16 µM, first compound 3.16 µM): 0.71%
- viability, T/C (second compound 3.16 µM, first compound 10 µM): 4%
- viability, T/C (second compound 10 µM, first compound 0.0316 µM): 0.41%
- viability, T/C (second compound 10 µM, first compound 0.1 µM): 0.24%
- viability, T/C (second compound 10 µM, first compound 0.316 µM): 0.82%
- viability, T/C (second compound 10 µM, first compound 1 µM): 0.42%
- viability, T/C (second compound 10 µM, first compound 3.16 µM): 2.08%
- viability, T/C (second compound 10 µM, first compound 10 µM): 2.09%
